According to paper PMC12607891, “A broadly conserved fungal chorismate mutase targets the plant shikimate pathway to regulate salicylic acid production and other secondary metabolites” (mBio, 2025):

Key:
[1] = target: T1, Cmu1 (Mycosarcoma maydis, UniProt A0A0D1DWQ2); experiment: absorbance at […] nm, prephenate converted to phenylpyruvate; assay type: biochemical; details: weak chorismate mutase activity assay; conditions as in cited procedure
T1 construct: His-tagged, pET, E. coli BL21, Ni-NTA

[2] = target: T2, AtCM3 (Arabidopsis thaliana, UniProt Q9C544); experiment: as above; assay type: biochemical; details: chorismate mutase activity assay; conditions as in cited procedure
T2 construct: gene CM3; His-tagged, pET, E. coli BL21, Ni-NTA
T2 sequence (Q9C544 48-316): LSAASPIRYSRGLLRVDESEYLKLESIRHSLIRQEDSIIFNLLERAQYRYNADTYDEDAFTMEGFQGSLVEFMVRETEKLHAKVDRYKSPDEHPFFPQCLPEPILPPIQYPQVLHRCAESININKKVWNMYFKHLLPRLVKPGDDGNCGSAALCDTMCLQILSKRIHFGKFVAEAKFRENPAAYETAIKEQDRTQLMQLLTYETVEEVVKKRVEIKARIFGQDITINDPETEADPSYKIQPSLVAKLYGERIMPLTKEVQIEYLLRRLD

[3] = target: T3, AtCM1 (Arabidopsis thaliana, UniProt P42738); experiment: as above; assay type: biochemical; details: chorismate mutase activity assay; conditions as in cited procedure
T3 construct: gene CM1; His-tagged, pET, E. coli BL21, Ni-NTA
T3 sequence (P42738 66-340): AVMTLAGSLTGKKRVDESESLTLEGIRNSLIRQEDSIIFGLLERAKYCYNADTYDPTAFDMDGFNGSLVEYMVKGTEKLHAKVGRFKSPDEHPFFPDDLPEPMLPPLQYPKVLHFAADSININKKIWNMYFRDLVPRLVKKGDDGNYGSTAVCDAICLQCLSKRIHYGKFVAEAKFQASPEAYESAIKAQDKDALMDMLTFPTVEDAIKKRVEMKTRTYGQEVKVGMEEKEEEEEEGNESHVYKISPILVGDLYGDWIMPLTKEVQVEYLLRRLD

[4] = target: T4, AtCM2 (Arabidopsis thaliana, UniProt Q9S7H4); experiment: as above; assay type: biochemical; details: chorismate mutase activity assay; conditions as in cited procedure
T4 construct: gene CM2; His-tagged, pET, E. coli BL21, Ni-NTA; cytosolic enzyme
T4 sequence (Q9S7H4 1-265): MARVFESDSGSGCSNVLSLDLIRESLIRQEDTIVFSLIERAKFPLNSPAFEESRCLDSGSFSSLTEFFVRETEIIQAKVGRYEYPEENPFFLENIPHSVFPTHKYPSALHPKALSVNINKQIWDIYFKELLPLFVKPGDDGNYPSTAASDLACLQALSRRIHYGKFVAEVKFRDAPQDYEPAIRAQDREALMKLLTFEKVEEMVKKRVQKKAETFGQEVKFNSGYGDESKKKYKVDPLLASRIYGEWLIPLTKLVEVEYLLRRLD

[5] = target: T5, SsCM1 (Sclerotinia sclerotiorum, UniProt A7F9N9); experiment: as above; assay type: biochemical; details: weak chorismate mutase activity assay; conditions as in cited procedure
T5 construct: gene SS1G_14320; His-tagged, pET, E. coli BL21, Ni-NTA

[6] = target: T6, SsCM1 ΔSP/cTP1-66 (Sclerotinia sclerotiorum, UniProt A7F9N9); experiment: HPLC of salicylic acid made in E. coli KRX expressing the protein; assay type: cell-based; details: endogenous isochorismate of E. coli; 24 °C overnight, IPTG and rhamnose induction; isochorismate pyruvate lyase activity
T6 construct: gene SS1G_14320; residues 1-66 (signal peptide and chloroplast targeting peptide) removed; codon-optimized, pET28a, in E. coli KRX cells
T6 sequence (A7F9N9 entry or part of it, stated change not applied): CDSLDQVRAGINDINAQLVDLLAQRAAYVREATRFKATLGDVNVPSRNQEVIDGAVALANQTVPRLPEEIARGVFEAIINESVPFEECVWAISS

T1 sequence (A0A0D1DWQ2 22-290): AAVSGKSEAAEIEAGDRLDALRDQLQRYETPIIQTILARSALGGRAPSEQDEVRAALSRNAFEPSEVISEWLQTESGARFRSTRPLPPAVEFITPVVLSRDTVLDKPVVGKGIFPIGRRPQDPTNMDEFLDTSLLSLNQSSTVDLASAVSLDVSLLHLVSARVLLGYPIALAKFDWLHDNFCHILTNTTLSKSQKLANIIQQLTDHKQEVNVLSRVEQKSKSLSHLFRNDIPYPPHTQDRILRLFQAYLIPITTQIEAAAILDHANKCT
T5 sequence (A7F9N9 entry or part of it): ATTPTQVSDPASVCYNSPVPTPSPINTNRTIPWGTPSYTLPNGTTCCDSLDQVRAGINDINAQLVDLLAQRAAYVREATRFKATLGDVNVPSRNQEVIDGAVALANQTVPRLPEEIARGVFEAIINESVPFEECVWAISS

Row | Structure (SMILES) | absorbance at 320 nm, prephenate converted to phenylpyruvate [1] | absorbance at 320 nm, prephenate converted to phenylpyruvate [2] | absorbance at 320 nm, prephenate converted to phenylpyruvate [3] | absorbance at 320 nm, prephenate converted to phenylpyruvate [4] | absorbance at 320 nm, prephenate converted to phenylpyruvate [5] | HPLC of salicylic acid made in E. coli KRX expressing the protein [6]
1 | C=C(O[C@@H]1C=C(C(=O)O)C=C[C@H]1O)C(=O)O [chorismate] | all tested chorismate mutases are able to convert chorismate into prephenate | all tested chorismate mutases are able to convert chorismate into prephenate | all tested chorismate mutases are able to convert chorismate into prephenate | all tested chorismate mutases are able to convert chorismate into prephenate | all tested chorismate mutases are able to convert chorismate into prephenate | 
2 | C=C(O[C@H]1C=CC=C(C(=O)O)[C@@H]1O)C(=O)O [isochorismate] |  |  |  |  |  | SsCM1 possesses some IPL activity when expressed in E. coli
